Laboratory results: patent publication US9862925B2, “Human stem cell-derived neural precursors for treatment of autoimmune diseases of the central nervous system” (Hadasit Medical Research Services & Development Limited, priority 2007, dated 2018)

Legend:
[1] = test system: hESC-derived multipotent uncommitted neural precursors; experiment: Oligodendroglial differentiation of hESCs with retinoic acid and purmorphamine, propagation in low purmorphamine; format: cell-based, human
Description: To derive an expandable population of neural precursors enriched for oligodendroglial progenitors (committed), initial neuralization of hESCs was induced as above with or without noggin supplementation. After 2 weeks of culturing in NPM supplemented with mitogens +/−noggin the clusters were treated with RA (1-10 μM; preferably 1 μM) and the hedgehog agonist, Purmurphamine (Merck) (0.5-2 μM; preferably 0.5 μM) to induce ventral-caudal specification of the neuralized cells. Following 7-21 days, preferably 21 days of treatment, the cultures were further propagated for three to 20 more weeks as floating spheres in modified Sato medium supplemented with low concentrations of purmorphamine (0.2-0.5 μM; preferably 0.5 μM), bFGF (20 ng/ml), EGF (20 ng/ml), (NT3; 5 ng/ml) and ascorbic acid (200 nM). For final differentiation, the clusters were plated on poly-D-Lysine (10 μg/ml) and fibronectin (5 μg/ml) coated coverslips in modified Sato medium supplemented with NT3 ([…]), ascorbic acid (200 nM) T3 (40 ng/ml) IGF1 (10 ng/ml;) with or without Rock inhibitor (10 μM; Sigma) for 2-21 days.
To develop expandable cultures enriched for oligodendroglial committed progenitors, hESCs clusters were induced to differentiate as free floating clusters into multipotent uncommitted neural precursors as above with or without noggin. After two weeks of initial neural induction the multipotent uncommitted neural precursors were further cultured for 1-3 weeks, preferably 3 weeks, as floating spheres in modified Sato medium supplemented with mitogens, retinoic acid (RA) and the hedgehog (HH) agonist purmorphamine. During this culture period the early multipotent neural precursors gradually become enriched with Olig2+ oligodendroglial precursors (30-50% of total cells).
For further expansion of the oligodendroglial precursors, the floating spheres were propagated in Sato medium supplemented with mitogens, and low concentrations (0.5 μM) of purmorphamine. After 3-20 weeks of propagation as free floating clusters and plating on fibronectin for 24-48 hours, expression of the OPC markers Olig2 (FIG. 8A), PDGFRα (FIG. 8B) and NG2 (FIG. 8C) were detected in 30%, 20% and 20% of the differentiating cells, respectively. Following further 7-21 days of differentiation in the presence of NT3, AA, T3 and IGF1 +/− Rock inhibitor, markers of mature oligodendrocytes such as O4 (FIG. 8D), GalC (FIG. 8E) and MBP (FIG. 8F) were detected in 20%, 15% and 3% of the plated cells, respectively.

[2] = test system: hESCs; experiment: In vitro oligodendroglial differentiation of hESCs following retinoic acid treatment; format: cell-based, human; settings: RA treatment
Description: Derivation of enriched population of committed oligodendrocyte progenitor cells (OPCs): Initial neural differentiation of hESC was induced as described above for the derivation of enriched population of uncommitted neural precursors. Following two weeks of culturing of hESC clusters in NPM supplemented with noggin (700 ng/ml), and the oligodendroglial mitogens bFGF (20 ng/ml) and EGF (20 ng/ml), the cultures were treated with retinoic acid (RA) (sigma) (10 μM) to induce caudal specification of the neuralized cells. Following 7 days of RA treatment, cultures were propagated as floating spheres in the oligodendroglial specific, modified Sato medium supplemented with the oligodendroglial mitogens bFGF (20 ng/ml), EGF (20 ng/ml) and PDGF-AA (50 ng/ml), and the oligodendroglial survival and maturation factors neurotrophine 3 (NT3) (5 ng/ml) and triiodothyronine (T3) (40 ng/ml).
In vitro oligodendroglial differentiation of hESCs was examined. The experimental protocol included initial induction of human ESCs to differentiate as free floating clusters, under defined culture conditions, in the presence of noggin into early multipotent neural precursors according to the published protocols as described above. After two weeks, they were treated with retinoic acid (RA) and propagated as floating spheres in modified Sato medium and mitogens At sequential week intervals, differentiation was induced by plating on fibronectin and withdrawal of the mitogens, and the expression of oligodendroglial markers were analyzed by immunostaining. After three weeks of propagation as free floating clusters, followed by plating and differentiation for 48 hours, the differentiating cells expressed the oligodendroglial markers NG2 (12%) (FIGS. 7A,[…], 7D, 7F) GD3 (20%) (FIGS. 7B, 7C) and PDGFRα (15%) (FIGS. 7E, 7F). Although at this stage of three weeks propagation, when enrichment for OPCs was obtained, markers of mature oligodendrocytes such as O4 and GalC were not detected, even after 7-10 days of differentiation. Only in cultures that were propagated for more than 5 weeks and induced to differentiate for 7 days, O4 and GalC were expressed by 3% and 1% of differentiating cells, respectively (FIGS. 7G, 7I (O4) and FIGS. 7H, 7I (GalC). Nuclei in FIGS. 7C, 7F, 7G-7I were counter stained with DAPI.

[3] = after RA + purmorphamine, 3-20 weeks propagation with 0.5 μM purmorphamine, plated on fibronectin 24-48 hours
[4] = propagation with 0.5 μM purmorphamine, further 7-21 days differentiation with NT3, AA, T3, IGF1 +/- Rock inhibitor
[5] = propagated more than 5 weeks, differentiated 7 days
[6] = three weeks propagation as floating clusters, differentiation 48 hours

c1ccc2c(Oc3nc(Nc4ccc(N5CCOCC5)cc4)c4ncn(C5CCCCC5)c4n3)cccc2c1 [purmorphamine]
Olig2+ oligodendroglial precursors (of total cells) ([1]; 1-3 weeks as floating spheres in modified Sato medium with mitogens, RA and purmorphamine): 30-50%
differentiating cells expressing NG2 [1, 3]: 20%
differentiating cells expressing Olig2 [1, 3]: 30%
differentiating cells expressing PDGFRα [1, 3]: 20%
plated cells expressing GalC [1, 4]: 15%
plated cells expressing MBP [1, 4]: 3%
plated cells expressing O4 [1, 4]: 20%

CC1=C(/C=C/C(C)=C/C=C/C(C)=C/C(=O)O)C(C)(C)CCC1 [retinoic acid]
differentiating cells expressing GalC [2, 5]: 1%
differentiating cells expressing O4 [2, 5]: 3%
differentiating cells expressing GD3 [2, 6]: 20%
differentiating cells expressing NG2 [2, 6]: 12%
differentiating cells expressing PDGFRα [2, 6]: 15%
